Measurements taken from patent publication US8865653B2, “Method of treatment for immunogenic treatment resistant cancer” (Institut Gustave Roussy, priority 2010, dated 2014).

Key:
[1] = test system: U2OS cells stably expressing CRT-GFP; experiment: CRT-GFP redistribution (granularity, nuclear shape) by automated microscopy; ICCB library screen; type: cell-based, human; conditions: for CRT-GFP granularity / CRT exposure in library screen in the presence vs absence of CDDP: ICCB library, 4 h, with CDDP; for CRT-GFP granularity (relocation to peripheral granular distribution): 1 μM MTX, 150 μM CDDP, 300 μM OXP
Experimental: The data is depicted as mean±s.e.m. of quadruplicates from a representative experiment. (C) Immunofluorescene was conducted on CRT-GFP expressing cells by means of staining with anti-CRT antibody and subsequent confocal image acquisition. (D) CRT has been cloned in frame n-terminal to a HaloTag® sequence followed by a KDEL ER retention signal. (E) The impermeable HaloTag® ligand forms covalent bonds exclusively with surface exposed HaloTag®-CRT fusion protein, whereas intracellular HaloTag®-CRT remains undetected.
Compounds from the ICCB known bioactive compounds library have been tested for their capacity to induce CRT-exposure. […] The cells were incubated for 4 h and were acquired by means of automated microscopy. The data is depicted as dot plots and representative images (B).
After washing with PBS 4 viewfields per well were acquired by means of a BD pathway 855 automated microscope.

U2OS cells [2] = type: cell-based
Experimental: The data is depicted as representative images (A) and (B) normalized Bax-GFP granularity values.
The data represents mean±s.e.m. of quadruplicates from a representative experiment. […] 16 h after treatment, cell death was monitored by simultaneous staining with 3,3 dihexyloxacarbocyanine iodide (DiOC6(3)) and propidium iodide (PI), and the percentage of dying (DiOC6(3)^low PI^−, open bars) and dead (DiOC6(3)^low PI^+, closed bars) cells was determined by cytofluorometry.
Cell death was quantified by cytofluorometric analysis using a FACS Vantage (Becton Dickinson, Mountain View, USA) as described previously (REF). Thus, cells were stained with 40 nM 3,3 dihexyloxacarbocyanine iodide (DiOC6(3); Molecular Probes, Eugene, Oreg., USA) for 30 min at 37° C. and concomitantly with 1 μg/ml propidium iodide (PI; Sigma Aldrich) for 30 min at 37° C. to determine the mitochondrial transmembrane potential. Data were statistically evaluated using CellQuest Pro software (Becton Dickinson, Mountain View, USA).

MCA205 cells [3] = conditions: Martins I et al, Oncogene 2010; cited from earlier work
MCA205 cells [4] = experiment: In vivo anti-tumor vaccination with treated MCA205 cells (Example 3)
Experimental: (F) MCA205 cells have been used for tumor vaccination in vivo. […] The mice have been rechallenged after 6 days with living cells and the tumor growth is depicted in the survival plot (n=10).
Tumor growth was evaluated for at least 50 days.

U2OS cells [5] = experiment: Analysis of surface exposed CRT (HaloTag ligand, anti-CRT immune staining)
CT26 and MCA cells = experiment: CRT exposure in single or cotreated cells (MitoC, cardiac glycosides); type: cell-based, mouse
Experimental: (B) CRT exposure was analysed in the cells that were single or cotreated as indicated by means of CRT surface staining and FACS quantification.

MCA205 cells [6] = experiment: In vivo anti-tumor vaccination with MitoC / Digoxin treated MCA205 cells; design: species or system mice; conditions: 20 μM MitoC
MCA205 sarcoma = experiment: Anthracycline chemotherapy of established MCA205 sarcoma (intratumoral DX); type: in vivo, mice; conditions: CH-223191 daily i.p. for 4 days from day of DX
Experimental: 0.8 million MCA205 or CT26 or TS/A tumor cells were inoculated subcutaneously near the thigh into C57Bl/6 (H-2^b) or BALB/c (H-2^d) mice. Anthracyclines-based chemotherapy was performed in MCA205 and CT26 models by intratumoral injecting DX (2 mM, […]) when tumors reached the size 25-40 mm^2. Radiotherapy was performed by local X-ray irradiation (10 Gy, RT250, Phillips) at the unshielded tumor area when TS/A tumor reached the size 40-60 mm^2.

MCA205 [7] = experiment: Pro-apoptotic effect on MCA205, DiOC6(3) fluorescence; type: cell-based, mouse; conditions: alone or in combination with anthracyclines (DX, MTX)
Experimental: (B) The impact of AHR pharmacological inhibitor CH-223191 on pro-apoptotic effect of DX or MTX against MCA205 was measured. A reduction in mitochondrial membrane potential indicated by decreased DiOC6(3) fluorescence was used to show cell apoptosis. The experiment was performed twice with identical results.

AHR = AHR (Homo sapiens, UniProt P35869); conditions: pure antagonist of AHR; cited from earlier work
MCA205 [8] = experiment: Tumor vaccination with MTX-treated MCA205 and rechallenge; type: in vivo; conditions: s.c. injection of MTX treated MCA205 cells, WT mice (not athymic nude mice)
Experimental: MCA205 cells were treated with 2 μM MTX for 18 hrs, washed thoroughly and injected into left flank subcutaneously at 0.3 million/mouse. PBS was used as control. Mice were rechallenged with 5×10^4 live MCA205 cells in the right flank 7 days later. Tumor growth was monitored every 2-3 days.

[9] = test system: CT26 overexpressing LC3-GFP; experiment: Induction of autophagy in vivo, LC3-GFP redistribution; design: species or system mice; conditions: i.v., tumors withdrawn 48 hours post-therapy
Experimental: After 8 days of tumor implantation (CT26 mouse colon cancer genetically modified to overexpress LC3-GFP in BALB/c immunocompetent mice), oxaliplatin or mitoxanthrone was inoculated systemically (i.v.). Tumors were withdrawn at 48 hours post-therapy and immunofluorescence stainings were performed on frozen sections of tumor tissues to visualize nuclei (in Hoechst blue), and autophagosomes in green (LC3-GFP). […] The lower panel is a graph summarizing enumeration of autophagosomes positive cells in 10 independent sections per tumor and animal (each dot represents one tumor). Statistical analyses were performed with Anova test (Fisher's exact method) with significant results at p<0.05.

[10] = test system: CT26 (ATG5 or ATG7 knock down, WT); experiment: Chemotherapy of established autophagy-deficient CT26 tumors ± apyrase inhibitor; type: in vivo, mice
Experimental: One million CT26 knock down with small interfering RNA specific for ATG5 or ATG7 or controls WT were treated with the anthracyclin mitoxanthrone (MTX) at 8 days post-implantation in one flank of a naïve animal (BALB/C mouse). […] Monitoring of tumor growth was recorded with a caliper (product of perpendicular diameters) and is depicted for 5 mice/group. Statistical analyses were performed with Anova test (Fisher's exact method) with significant results at p<0.05.

U2OS cells [11] = experiment: US Drug library screen: CRT-GFP, HMGB1-GFP, quinacrine; conditions: 1 μM, 4 h / 24 h / 16 h
U2OS cells [12] = experiment: ATP release assays (quinacrine, luciferin-based); type: cell-based, human; conditions: 16 h post-treatment, intracellular and extracellular ATP
Experimental: In short, cells were labeled with 1 μM quinacrine in Krebs-Ringer solution (125 mM NaCl, 5 mM KCl, 1 mM MgSO4, 0.7 mM KH2PO4, 2 mM CaCl2, 6 mM glucose and 25 mM Hepes, pH 7.4) for 30 min at 37° C.
After incubation in quinacrine solution (as described above), cells were rinsed and resuspended in PBS containing 1 μg/ml PI. The samples were analyzed by means of a FACS Vantage (Becton Dickinson) and the data was statistically evaluated using the CellQuest Pro software (BD Biosciences).
After cell death induction, extracellular ATP was measured by luciferin-based ENLITEN ATP Assay (Promega, Madison, USA) following the manufacturer's instructions. Intracellular ATP was measured using an ATP Assay kit (Calbiochem, Darmstadt, Germany) based on luciferin-luciferase conversion following the manufacturer's instructions. For assessment of the chemoluminescent signal, the plates were read in a Fluostar luminometer (BMG Labtech).

eIF2α = experiment: Immunoblotting of eIF2α / PERK phosphorylation; type: cell-based
Excerpt: (E) The phosphorylation status of eIF2α has been assessed by immunoblotting against the phosphoneoepitope Ser51 of eIF2α by means of a monoclonal antibody. A polyclonal antibody has been used to visualize whole eIF2α protein levels.

EL4 thymoma = experiment: Chemotherapy and Dendrophilin treatment of established EL4 tumors; type: in vivo, mice; conditions: oxaliplatin 5 mg per kg i.p.
Experimental: WT or loss-of-function mice were injected in the right flank with 1×10^6 of EL4 or CT26 or MCA205 cells. Mice were then randomly assigned into treatment groups of 4-6 mice each. […] Two and/or four days after chemo treatment, mice were treated with Dendrophilin or LPS (2 μg in 100 μl NaCl per mouse i.v or i.t). […] Tumor growths were monitored every 3-4 days using a caliper.

[13] = test system: CT26 (siATG5, siATG6, siATG7); experiment: Prophylactic immunization with autophagy-deficient dying CT26 cells ± apyrase inhibitor; type: in vivo; conditions: anthracycline-treated cells injected s.c., immunocompetent mice
Experimental: One million CT26 knock down with small interfering RNA specific for ATG5, ATG6 (Beclin 1 BCN1), or ATG7 or controls siCO were treated with the anthracyclin mitoxanthrone (MTX) for 18 hours, washed and inoculated in one flank of a naïve animal (BALB/C mouse). Positive controls are CT26 treated with MTX and negative controls are CT26 treated with PBS. Ten days later, mice were rechallenged with 3× the minimal tumorigenic dose of live CT26 cells on the opposite flank and monitoring of tumor growth was recorded with a caliper (product of perpendicular diameters). The % of tumor free animals are shown in the graph and the number of animals per group is indicated (n=20). Statistical analyses were performed with Anova test (Fisher's exact method) with significant results at p<0.05.
Idem as in FIG. 40 but the dying cells (siCO or siATG7) were admixed (or not) with apyrase inhibitors (AI) (apyrases are enzymes hydrolyzing ATP in the extracellular milieu) and/or suramine (SUR) or oxidized ATP (OXY), both inhibitors of purinergic receptors at the conventional dosing (previously reported). The % of tumor free animals are shown in the graph and the number of animals per group is indicated (n=20). Statistical analyses were performed with Anova test (Fisher's exact method) with significant results at p<0.05.

[14] = MTX at 8 days post-implantation

AHR, sequence (P35869 11-848, species assumed): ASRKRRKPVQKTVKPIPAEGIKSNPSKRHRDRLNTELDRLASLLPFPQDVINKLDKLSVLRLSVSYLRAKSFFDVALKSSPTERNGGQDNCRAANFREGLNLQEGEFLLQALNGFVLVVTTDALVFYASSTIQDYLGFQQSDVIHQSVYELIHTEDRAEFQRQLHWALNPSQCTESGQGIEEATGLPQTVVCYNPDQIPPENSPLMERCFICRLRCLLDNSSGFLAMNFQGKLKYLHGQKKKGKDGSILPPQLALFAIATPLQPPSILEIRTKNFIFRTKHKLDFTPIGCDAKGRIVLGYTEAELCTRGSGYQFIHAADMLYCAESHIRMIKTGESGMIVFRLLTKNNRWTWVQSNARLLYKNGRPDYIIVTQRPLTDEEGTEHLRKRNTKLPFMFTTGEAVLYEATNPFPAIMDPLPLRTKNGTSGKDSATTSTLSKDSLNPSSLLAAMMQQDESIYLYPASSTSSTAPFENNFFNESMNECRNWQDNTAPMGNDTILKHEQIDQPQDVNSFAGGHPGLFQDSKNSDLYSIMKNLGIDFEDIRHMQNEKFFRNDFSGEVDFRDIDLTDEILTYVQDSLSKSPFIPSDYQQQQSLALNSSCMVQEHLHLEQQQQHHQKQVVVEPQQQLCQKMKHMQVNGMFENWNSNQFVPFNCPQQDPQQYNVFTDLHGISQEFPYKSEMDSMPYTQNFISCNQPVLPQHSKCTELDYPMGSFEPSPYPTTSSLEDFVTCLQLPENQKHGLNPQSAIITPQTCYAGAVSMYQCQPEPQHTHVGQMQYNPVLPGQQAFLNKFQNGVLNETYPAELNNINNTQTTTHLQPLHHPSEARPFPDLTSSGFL

C/C=C(/C)C(=O)O[C@H]1C(C)=C2[C@H]([C@@H]1OC(=O)CCCCCCC)[C@@](C)(OC(C)=O)C[C@H](OC(=O)CCC)[C@@]1(O)[C@H]2OC(=O)[C@@]1(C)O [THAPS, thapsigargin]
CRT-GFP granularity / CRT exposure in library screen in the presence vs absence of CDDP [1]: particularly efficient in inducing CRT-GFP granularity in the presence (but not in the absence) of CDDP
CRT-GFP granularity / CRT exposure in library screen in the presence vs absence of CDDP ([1]; listed as thapsigargin): the sole agent (out of 450 compounds) to induce CRT exposure in the presence of cisplatin but not in the absence of cisplatin
cytotoxic effects (U2OS cells [2]): exhibited no major cytotoxic effects
effect on toxicity of CDDP (U2OS cells [2]): did not increase the toxicity of CDDP
immunogenic cell death when combined with cisplatin (MCA205 cells [3]): could induce immunogenic cell death when combined with cisplatin
anticancer immune response, vaccine of dying cells generated with CDDP combined with THAPS (MCA205 cells [4]; MCA205, rechallenge with live cells): elicited an effective anticancer immune response in vivo
CRT-GFP granularity, CRT-HaloTag exposure, native CRT exposure, THAPS alone (U2OS cells [5]; in the absence of CDDP): comparably inefficient
CRT-GFP granularity, CRT-HaloTag exposure, native CRT exposure, THAPS with CDDP (U2OS cells [5]; in the presence of CDDP): highly efficient in the presence of CDDP

CO[C@@]12[C@H](COC(N)=O)C3=C(C(=O)C(C)=C(N)C3=O)N1C[C@@H]1N[C@@H]12 [MitoC, mitomycin C]
CRT exposure, MitoC by its own (CT26 and MCA cells): incapable of exposing CRT
vaccinating effect, MitoC alone (MCA205 cells [6]): failed to confer any vaccinating effect

Cc1ccccc1N=Nc1ccc(NC(=O)c2ccnn2C)c(C)c1 [CH-223191, 2-methyl-2H-pyrazole-3-carboxylic acid (2-methyl-4-o-tolylazo-phenyl)-amide]
effect on efficacy of DX on established cancers in vivo (MCA205 sarcoma): markedly reduced the efficacy of DX
cell-autonomous effects on the tumor cells (MCA205 [7]): no cell-autonomous effects on the tumor cells
concentration up to which no AHR agonist actions (AHR): > 100 µM

O=C1c2c(O)ccc(O)c2C(=O)c2c(NCCNCCO)ccc(NCCNCCO)c21 [MTX, mitoxantrone]
protection against rechallenge with live MCA205 tumor cells (MCA205 [8]): could protect WT mice
CRT-GFP granularity (relocation to peripheral granular distribution) [1]: only observed after treatment of the cells with MTX or OXP
redistribution of LC3-GFP in autophagosomes in tumors [9]: Redistribution of LC3-GFP in autophagosomes can be visualized post-therapy
growth of ATG5 and ATG7 deficient tumors under MTX [10, 14]: not controlled by MTX therapy
growth of CT26 WT tumors under MTX [10, 14]: significantly respond
rank in screen for exposing CRT and emitting HMGB1 and ATP (U2OS cells [11]): most potent in exposing CRT, and emitting HMGB1 and ATP

O=C1[O][Pt]2([NH][C@@H]3CCCC[C@H]3[NH]2)[O]C1=O [OXP, oxaliplatin]
CRT-GFP granularity (relocation to peripheral granular distribution) [1]: only observed after treatment of the cells with MTX or OXP
IC50 (U2OS cells [2]; short-term experiments, loss of the mitochondrial transmembrane potential ΔΨm, read-out: IC50, imminent cell death): ~600 µM
mitochondrial perturbations (ΔΨm dissipation, Bax-GFP relocation) (U2OS cells [2]; used at their IC50): induced similar mitochondrial perturbations
ATP release (U2OS cells [12]): induced ATP release
eIF2α phosphorylation on serine 51 (eIF2α; phospho-neoepitope-specific antibody): much more efficient than CDDP
activating phosphorylation of PERK (eIF2α; shortly after treatment): detectable shortly after treatment with OXP
redistribution of LC3-GFP in autophagosomes in tumors [9]: Redistribution of LC3-GFP in autophagosomes can be visualized post-therapy
antitumor effects of chemotherapy alone (EL4 thymoma): only mild effects
protective anticancer immune response after vaccination with drug-treated MCA205 cells (MCA205 cells [4]; s.c. injection, rechallenge with live tumor cells): readily induce such a tumor-protective response
surface exposure of CRT-HaloTag (U2OS cells [5]; cell-impermeable HaloTag ligand, microscopy and cytofluorometry): unless they were treated with immunogenic cell death inducers such as OXP
surface immunofluorescence staining of CRT (U2OS cells [5]; non-permeabilized CRT-GFP cells): actually extruded CRT

CCN(CC)c1ncnc2c1ncn2C1OC(COP(=O)(O)OP(=O)(O)C(Br)(Br)P(=O)(O)O)C(O)C1O [ARL67156, 6-N,N-Diethyl-D-beta-gamma-dibromomethylene adenosine triphosphate]
immunogenicity of autophagy-deficient dying tumour cells with co-injected apyrase inhibitor [13]: defect in immunogenicity can be restored
response of autophagy-deficient tumours to anthracycline chemotherapy with intratumoural apyrase inhibitor ([10]; tumours established for 8 days): defect is again overcome
